Source: BindingDB's records for doi:10.1016/j.bmcl.2019.04.027 (Gilead Sciences, 2019)
pEC50: −log10 of the molar value.

Experiments:
[1] = Inhibition of NS5A in HCV genotype 4a ED43 infected in human HuH7 replicon cells assessed as reduction in viral replication after 3 days by luciferase reporter gene assay
[2] = Inhibition of NS5A in HCV genotype 3a S52 infected in human HuH7 transient chimeric replicon cells assessed as reduction in viral replication after 3 days by luciferase reporter gene assay
[3] = Inhibition of NS5A in HCV genotype 1a H77 infected in human HuH7 replicon cells assessed as reduction in viral replication after 3 days by luciferase reporter gene assay
[4] = Inhibition of NS5A L31M mutant in HCV genotype 2a J6 (M31) infected in human HuH7 replicon cells assessed as reduction in viral replication after 3 days by luciferase reporter gene assay
[5] = Inhibition of NS5A in HCV genotype 2b MD2b-1 infected in human HuH7 replicon cells assessed as reduction in viral replication after 3 days by luciferase reporter gene assay
[6] = Inhibition of NS5A in HCV genotype 2a JFH1 infected in human HuH7 replicon cells assessed as reduction in viral replication after 3 days by luciferase reporter gene assay
[7] = Inhibition of NS5A in HCV genotype 1b Con1 infected in human HuH7 replicon cells assessed as reduction in viral replication after 3 days by luciferase reporter gene assay
[8] = Inhibition of NS5A Y93H mutant in HCV genotype 1b infected in human HuH7 replicon cells assessed as reduction in viral replication after 3 days by luciferase reporter gene assay
[9] = Inhibition of NS5A Y93C mutant in HCV genotype 1a infected in human HuH7 replicon cells assessed as reduction in viral replication after 3 days by luciferase reporter gene assay
[10] = Inhibition of NS5A Q30E mutant in HCV genotype 1a infected in human HuH7 replicon cells assessed as reduction in viral replication after 3 days by luciferase reporter gene assay
[11] = Inhibition of NS5A Q30R mutant in HCV genotype 1a infected in human HuH7 replicon cells assessed as reduction in viral replication after 3 days by luciferase reporter gene assay
[12] = Inhibition of NS5A in wild type HCV genotype 1a infected in human HuH7 replicon cells assessed as reduction in viral replication after 3 days by luciferase reporter gene assay
[13] = Inhibition of NS5A M28T mutant in HCV genotype 1a infected in human HuH7 replicon cells assessed as reduction in viral replication after 3 days by luciferase reporter gene assay
[14] = Inhibition of NS5A L31M mutant in HCV genotype 2a JFH1 (M31) infected in human HuH7 replicon cells assessed as reduction in viral replication after 3 days by luciferase reporter gene assay
[15] = Inhibition of NS5A L31M mutant in HCV genotype 1a infected in human HuH7 replicon cells assessed as reduction in viral replication after 3 days by luciferase reporter gene assay
[16] = Inhibition of NS5A in HCV genotype 4a ED43 infected in human HuH7 transient chimeric replicon cells assessed as reduction in viral replication after 3 days by luciferase reporter gene assay
[17] = Inhibition of NS5A Q30H mutant in HCV genotype 1a infected in human HuH7 replicon cells assessed as reduction in viral replication after 3 days by luciferase reporter gene assay
[18] = Inhibition of NS5A Y93H mutant in HCV genotype 1a infected in human HuH7 replicon cells assessed as reduction in viral replication after 3 days by luciferase reporter gene assay
[19] = Inhibition of NS5A in wild type HCV genotype 1b infected in human HuH7 replicon cells assessed as reduction in viral replication after 3 days by luciferase reporter gene assay
[20] = Inhibition of NS5A L31M mutant in patient derived HCV genotype 2b MD2b-1 infected in human HuH7 replicon cells assessed as reduction in viral replication after 3 days by luciferase reporter gene assay
[21] = Inhibition of NS5A in HCV genotype 6e D88 infected in human HuH7 replicon cells assessed as reduction in viral replication after 3 days by luciferase reporter gene assay
[22] = Inhibition of NS5A in HCV genotype 5a SA13 infected in human HuH7 replicon cells assessed as reduction in viral replication after 3 days by luciferase reporter gene assay
[23] = Inhibition of NS5A in HCV genotype 6a HK6 infected in human HuH7 replicon cells assessed as reduction in viral replication after 3 days by luciferase reporter gene assay
[24] = Inhibition of NS5A in HCV genotype 2a JFH1 (L31) infected in human HuH7 replicon cells assessed as reduction in viral replication after 3 days by luciferase reporter gene assay
[25] = Inhibition of NS5A L31M mutant in HCV genotype 2a JFH1 infected in human HuH7 replicon cells assessed as reduction in viral replication after 3 days by luciferase reporter gene assay
[26] = Inhibition of NS5A in HCV genotype 2a J6 infected in human HuH7 replicon cells assessed as reduction in viral replication after 3 days by luciferase reporter gene assay
[27] = Inhibition of NS5A in HCV genotype 3a S52 infected in human HuH7 replicon cells assessed as reduction in viral replication after 3 days by luciferase reporter gene assay

SMILES	pEC50 [1]	pEC50 [2]	pEC50 [3]	pEC50 [4]	pEC50 [5]	pEC50 [7]	pEC50 [14]	pEC50 [16]	other results
COC[C@H]1C[C@@H](c2ncc(-c3ccc4c(c3)COc3cc5c(ccc6nc([C@@H]7C[C@H](C)CN7C(=O)[C@@H](NC(=O)OC)C(C)C)[nH]c65)cc3-4)[nH]2)N(C(=O)[C@H](NC(=O)OC)c2ccccc2)C1	10.96	10.60	10.89	10.85	10.82	10.77	–	–	pEC50 [6]: 11.22
COC[C@H]1C[C@@H](c2nc3ccc4cc5c(cc4c3[nH]2)OCc2cc(-c3cnc([C@@H]4CCCN4C(=O)[C@@H](NC(=O)OC)C(C)C)[nH]3)ccc2-5)N(C(=O)[C@@H](NC(=O)OC)C(C)C)C1	–	10.62	10.68	9.55	9.87	10.59	11.10	10.85	pEC50 [8]: 10.07; pEC50 [9]: 9.66; pEC50 [10]: 8.00; pEC50 [11]: 9.66; pEC50 [12]: 10.43; pEC50 [13]: 9.72; pEC50 [15]: 9.43; pEC50 [17]: 9.82; pEC50 [18]: 8.33; pEC50 [19]: 10.59
COC(=O)N[C@H](C(=O)N1CCC[C@H]1c1ncc(-c2cc3c4c(c2)OCc2cc(-c5cnc([C@@H]6CCCN6C(=O)[C@@H](NC(=O)OC)C(C)C)[nH]5)cc(c2-4)OC3)[nH]1)C(C)C	–	10.26	10.54	8.06	–	10.66	–	10.54	pEC50 [20]: 8.75; pEC50 [21]: 8.94; pEC50 [22]: 10.25; pEC50 [23]: 10.80; pEC50 [24]: 11.15; pEC50 [25]: 8.23
COC[C@H]1C[C@@H](c2ncc(-c3ccc4c(c3)COc3cc5c(ccc6nc([C@@H]7CCCN7C(=O)[C@@H](NC(=O)OC)C(C)C)[nH]c65)cc3-4)[nH]2)N(C(=O)[C@H](NC(=O)OC)c2ccccc2)C1	11.15	10.77	10.96	10.89	11.05	10.72	–	–	pEC50 [6]: 11.22
COC[C@H]1C[C@@H](c2ncc(-c3ccc4c(c3)COc3cc5c(ccc6nc([C@@H]7C[C@H]8C[C@@H]8N7C(=O)[C@@H](NC(=O)OC)C(C)C)[nH]c65)cc3-4)[nH]2)N(C(=O)[C@H](NC(=O)OC)c2ccccc2)C1	11.05	10.74	11.00	9.95	10.34	10.96	–	–	pEC50 [6]: 11.22
CCO[C@H]1C[C@@H](c2nc3ccc4cc5c(cc4c3[nH]2)OCc2cc(-c3cnc([C@@H]4CCCN4C(=O)[C@@H](NC(=O)OC)C(C)C)[nH]3)ccc2-5)N(C(=O)[C@@H](NC(=O)OC)C(C)C)C1	–	10.32	10.82	9.42	9.58	10.74	11.15	10.70	–
COC[C@H]1C[C@@H](c2ncc(-c3cc4c5c(c3)OCc3cc(-c6cnc([C@@H]7CC[C@H](C)N7C(=O)[C@@H](NC(=O)OC)C(C)C)[nH]6)cc(c3-5)OC4)[nH]2)N(C(=O)[C@H](NC(=O)OC)c2ccccc2)C1	10.89	9.92	10.80	–	9.54	10.80	–	–	pEC50 [21]: 9.96; pEC50 [22]: 10.09; pEC50 [23]: 10.66; pEC50 [26]: 9.32
COC(=O)N[C@H](C(=O)N1CCC[C@H]1c1ncc(-c2ccc3c(c2)COc2cc4c(ccc5nc([C@@H]6CC[C@H](C)N6C(=O)[C@@H](NC(=O)OC)C(C)C)[nH]c54)cc2-3)[nH]1)C(C)C	10.70	–	10.96	9.63	–	10.74	10.72	–	pEC50 [27]: 10.11
COC[C@H]1C[C@@H](c2ncc(-c3ccc4c(c3)COc3cc5c(ccc6nc([C@@H]7C[C@H](COC)CN7C(=O)[C@@H](NC(=O)OC)C(C)C)[nH]c65)cc3-4)[nH]2)N(C(=O)[C@@H](NC(=O)OC)C(C)C)C1	–	9.69	10.62	10.21	9.74	10.47	11.00	10.44	–
COC(=O)N[C@H](C(=O)N1[C@@H](C)CC[C@H]1c1ncc(-c2ccc3c(c2)COc2cc4c(ccc5nc([C@@H]6CC[C@H](C)N6C(=O)[C@@H](NC(=O)OC)C(C)C)[nH]c54)cc2-3)[nH]1)C(C)C	–	10.70	11.10	9.55	10.20	10.92	10.85	11.10	–
COC(=O)N[C@H](C(=O)N1CCC[C@H]1c1ncc(-c2ccc3c(c2)COc2cc4c(ccc5nc([C@@H]6C[C@H](C)CN6C(=O)[C@@H](NC(=O)OC)C(C)C)[nH]c54)cc2-3)[nH]1)C(C)C	–	10.74	10.96	9.35	9.88	10.74	11.15	10.96	–
COC[C@H]1C[C@@H](c2nc3ccc4cc5c(cc4c3[nH]2)OCc2cc(-c3cnc([C@@H]4CC[C@H](C)N4C(=O)[C@@H](NC(=O)OC)C(C)C)[nH]3)ccc2-5)N(C(=O)[C@@H](NC(=O)OC)C(C)C)C1	–	10.21	10.96	10.17	9.80	10.77	10.92	10.82	–
COC[C@H]1C[C@@H](c2ncc(-c3ccc4c(c3)COc3cc5c(ccc6nc([C@@H]7C[C@@H]8C[C@H]8N7C(=O)[C@@H](NC(=O)OC)C(C)C)[nH]c65)cc3-4)[nH]2)N(C(=O)[C@H](NC(=O)OC)c2ccccc2)C1	11.05	10.60	10.89	10.68	10.55	10.70	–	–	pEC50 [6]: 11.15
COC[C@H]1C[C@@H](c2nc3ccc4cc5c(cc4c3[nH]2)OCc2cc(-c3cnc([C@@H]4C[C@H](C)CN4C(=O)[C@@H](NC(=O)OC)C(C)C)[nH]3)ccc2-5)N(C(=O)[C@@H](NC(=O)OC)C(C)C)C1	–	10.24	10.85	9.97	9.78	10.72	11.05	10.66	–
